The text below walks through data of patent publication US5817756A, “Pseudo- and non-peptide bradykinin receptor antagonists” (Scios Inc., priority 1995, dated 1998).

Starred links: 1 amine or outer side, 2 acyl side, 3 side chain; linkers in the order of their positions; H or OH if unused. Non-standard residues stand in square brackets, D forms with d. Residues, ends and D or L forms follow the SMILES beside them. X3 = O=C(Cn1c(=O)n(C2CCN([*:1])CC2)c2ccccc21)[*:2]; X7 = O=C(Cn1c(=O)c2ccccc2c2ccc(N[*:1])cc21)[*:2]; Butenoyl(2E,4-amino) = O=C(/C=C/CN[*:1])[*:2]; X4 = O=C(Cn1c2c(c3ccccc31)CN([*:1])CC2)[*:2]; Oic = O=C(O)[C@@H]1C[C@@H]2CCCC[C@@H]2N1; X1 = O=C(C/C=C/c1ccccc1CN[*:1])[*:2]; X6 = O=C(/C=C/c1ccccc1CCN[*:1])[*:2]; X2 = O=C(/C=C/c1ccccc1CN[*:1])[*:2]; dTic = O=C(O)[C@H]1Cc2ccccc2CN1; 12Ado = NCCCCCCCCCCCC(=O)O; Nphe = O=C(O)CNCc1ccccc1; Ahx = NCCCCCC(=O)O

One assay deals with T1, human bradykinin B2 receptor (Homo sapiens, UniProt P30411).
T1 construct: The HindIII/XbaI fragment of one full-length clone, 126A, was inserted into pcDNAI neo vector; expressed in transfected cells
T1 sequence (P30411 1-391): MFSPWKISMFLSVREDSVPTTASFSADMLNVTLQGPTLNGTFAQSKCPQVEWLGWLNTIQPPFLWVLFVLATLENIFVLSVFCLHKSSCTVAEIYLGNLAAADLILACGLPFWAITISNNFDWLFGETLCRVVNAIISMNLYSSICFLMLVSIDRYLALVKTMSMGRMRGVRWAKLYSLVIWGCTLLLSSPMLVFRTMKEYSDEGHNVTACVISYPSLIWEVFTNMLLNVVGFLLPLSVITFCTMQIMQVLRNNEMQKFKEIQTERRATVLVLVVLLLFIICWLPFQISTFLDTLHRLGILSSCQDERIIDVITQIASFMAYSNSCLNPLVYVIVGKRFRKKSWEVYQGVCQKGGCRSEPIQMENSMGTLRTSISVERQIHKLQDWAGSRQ
Put plainly: Radioligand binding, H2O.2 cell membranes, 3H-NPC17731.
Conditions: not given
The method, then:
(§1) A human bradykinin B2 receptor was expressed in CHO/K cells. Briefly, approximately 2×10^6 plaques from a human uterus λgt10 cDNA library (Clontech Laboratories; Palo Alto, Calif.) were screened using a PCR fragment containing the coding region of the rat B2 receptor. This probe was generated by random-primed synthesis in the presence of α[^32 P]dATP. Duplicate filters were hybridized overnight at 42° C. in 1M NaCl, 50 mM Tris pH 7.5, 5× Denhardt's, 200 μg/ml salmon sperm DNA, 1% SDS, and 20% formamide. The filters were washed at 65° C. in 1× SSC and 1% SDS. Coincident positively hybridizing plaques were purified and rescreened with the same probe and stringency conditions. EcoRI fragments of positive clones were inserted into Bluescript/KS II+vector (Stratagene; La Jolla, Calif.) for sequence determination.
(§2) The nucleotide sequence of the cloned human B2 receptors was determined using double-stranded DNA and the dideoxy chain termination method. Commercially available T3 and T7 oligonucleotides (USB; Cleveland, Ohio) and synthetic 21-mer oligonucleotides (DNA/RNA Synthesizer; applied Biosystems Inc.; Palo Alto, Calif.) from both the known rat sequence and the determined human sequence were used to identify the nucleotide sequence from the 5' untranslated end to the BglII site in the 3' untranslated end of the clone.
(§3) CHO/K cells were plated in 2 ml of growth medium (Ham's F12 with 10% FBS) per 6 well plate and incubated at 37° C., 5% CO2 until they were 60% confluent. For each well, 4, 12, and 16 μg of DNA was diluted in 100 μl Opti-MEM I reduced serum medium (Gibco/BRL; Gaithersburg, Md.). 12 μl of TransfectASE reagent (Gibco/BRL) was diluted in a separate aliquot of 100 μl Opti-MEM I. The DNA and TransfecASE solutions were combined, mixed gently, and incubated at 25° C. for 15 minutes. This solution was then diluted to 1 ml with Opti-MEM I. Each well was washed twice with Opti-MEM I and 1 ml of the DNA/TransfectAse complex was added to each well. After a 5 hour incubation at 37° C. and 5% CO2, 1 ml of Ham's F12 with 20% FBS was added to each well and cells were incubated overnight. Media was replaced with growth medium and incubated for additional 24 hours.
(§4) This assay measures the ability of a bradykinin antagonist compound to compete for binding to the human B2 receptor with tritiated bradykinin or tritiated NPC17731, a bradykinin analog which is known to bind the B2 receptor and act as a bradykinin antagonist.
(§5) H2O.2 cells were grown to confluency in Ham's F12 media containing 10% FBS and 500 μg/ml Geneticin. Growth media was aspirated and the monolayer washed once with Dulbecco's PBS without Ca^++ and Mg^++. Cells were scraped in Dulbecco's PBS and centrifuged at 2,000×g for 10 minutes. Pellets were resuspended in 25 mM TES, 1 mM 1,10-phenanthroline pH 6.8 buffer and homogenized using a Ploytron at setting 5 for 10 seconds. An aliquot was taken for a protein determination using a BioRad protein assay kit. Membranes were centrifuged at 48,000×g for 10 minutes at 4° C. Pellets were resuspended in the TES buffer with 0.1% BSA and 0.014% bacitracin. 0.5 ml aliquots were frozen in liquid N2 and stored at -80° C. for up to 2 weeks.
(§6) Membranes from H2O.2 cells previously prepared were thawed at 37° C. and diluted in 25 mM TES, […] 1,10-phenanthroline pH 6.8 containing BSA and bactiracin. […] Non-specific binding was determined with 1 μM bradykinin. The tubes were incubated 90 minutes at 25° C. and the assay was terminated by rapid vacuum filtration onto Whatman GF/B filters presoaked with 0.2% PEI for 3 hours followed by 2×3 ml aliquots of ice-cold 50 mM Tris, pH 7.4. Radioactivity was counted with a Beckman scintillation counter.
On to `N=C(N)NCCC[C@@H](N)C(=O)N[C@@H](CCCNC(=N)N)C(=O)N1CCC2(CC1)C(=O)N(CC(=O)N[C@@H](CO)C(=O)N1Cc3ccccc3C[C@@H]1C(=O)N1[C@H](C(=O)N[C@@H](CCCNC(=N)N)C(=O)O)C[C@@H]3CCCC[C@@H]31)CN2c1ccccc1` [drawing 59], for which the Ki worked out at 7.8 nM.

The assay is the same for the next values; noted with them: Table 1; 3H-NPC17731; read-out: Radioligand Binding Human 3H17731.
As for `N=C(N)NCCC[C@@H](N)C(=O)N[C@@H](CCCNC(=N)N)C(=O)N1CCc2c(c3ccccc3n2CC(=O)N[C@@H](CO)C(=O)N2Cc3ccccc3C[C@@H]2C(=O)N2[C@H](C(=O)N[C@@H](CCCNC(=N)N)C(=O)O)C[C@@H]3CCCC[C@@H]32)C1` (H-[dR]R[X4]S[dTic][Oic]R-OH), the Ki is 78 nM.

Consider `N=C(N)NCCC[C@@H](N)C(=O)N[C@@H](CCCNC(=N)N)C(=O)NCCCCCC(=O)N[C@@H](CO)C(=O)N1Cc2ccccc2C[C@@H]1C(=O)N1[C@H](C(=O)N[C@@H](CCCNC(=N)N)C(=O)O)C[C@@H]2CCCC[C@@H]21` (H-[dR]R[Ahx]S[dTic][Oic]R-OH), for which the Ki amounted to 100 nM.

As to `N=C(N)NCCC[C@@H](N)C(=O)N[C@@H](CCCNC(=N)N)C(=O)NC/C=C/C(=O)N[C@@H](CO)C(=O)N1Cc2ccccc2C[C@@H]1C(=O)N1[C@H](C(=O)N[C@@H](CCCNC(=N)N)C(=O)O)C[C@@H]2CCCC[C@@H]21` (H-[dR]R[Butenoyl(2E,4-amino)]S[dTic][Oic]R-OH), the Ki came out at 229 nM.

In the case of `N=C(N)NCCC[C@@H](N)C(=O)N[C@@H](CCCNC(=N)N)C(=O)NCc1ccccc1/C=C/C(=O)N(CC(=O)N[C@@H](CO)C(=O)N1Cc2ccccc2C[C@@H]1C(=O)N1[C@H](C(=O)N[C@@H](CCCNC(=N)N)C(=O)O)C[C@@H]2CCCC[C@@H]21)Cc1ccccc1` (H-[dR]R[X2][Nphe]S[dTic][Oic]R-OH), the Ki was determined as 28 nM.

For the compound `N=C(N)NCCC[C@@H](N)C(=O)N[C@@H](CCCNC(=N)N)C(=O)NCCCCCCCCCCCC(=O)N[C@@H](CO)C(=O)N1Cc2ccccc2C[C@@H]1C(=O)N1[C@H](C(=O)N[C@@H](CCCNC(=N)N)C(=O)O)C[C@@H]2CCCC[C@@H]21` (H-[dR]R[12Ado]S[dTic][Oic]R-OH), the Ki came out at 31 nM.

Regarding `N=C(N)NCCC[C@@H](N)C(=O)N[C@@H](CCCNC(=N)N)C(=O)NCc1ccccc1/C=C/CC(=O)N[C@@H](CO)C(=O)N1Cc2ccccc2C[C@@H]1C(=O)N1[C@H](C(=O)N[C@@H](CCCNC(=N)N)C(=O)O)C[C@@H]2CCCC[C@@H]21` (H-[dR]R[X1]S[dTic][Oic]R-OH), the Ki is 17 nM.

`N=C(N)NCCC[C@@H](N)C(=O)N[C@@H](CCCNC(=N)N)C(=O)NCCc1ccccc1/C=C/C(=O)N[C@@H](CO)C(=O)N1Cc2ccccc2C[C@@H]1C(=O)N1[C@H](C(=O)N[C@@H](CCCNC(=N)N)C(=O)O)C[C@@H]2CCCC[C@@H]21` (H-[dR]R[X6]S[dTic][Oic]R-OH): the Ki was found to be 23 nM.

With `N=C(N)NCCC[C@@H](N)C(=O)N[C@@H](CCCNC(=N)N)C(=O)Nc1ccc2c3ccccc3c(=O)n(CC(=O)N[C@@H](CO)C(=O)N3Cc4ccccc4C[C@@H]3C(=O)N3[C@H](C(=O)N[C@@H](CCCNC(=N)N)C(=O)O)C[C@@H]4CCCC[C@@H]43)c2c1` (H-[dR]R[X7]S[dTic][Oic]R-OH), the Ki amounted to 3.3 nM.

For `N=C(N)NCCC[C@@H](N)C(=O)N[C@@H](CCCNC(=N)N)C(=O)N1CCC(n2c(=O)n(CC(=O)N[C@@H](CO)C(=O)N3Cc4ccccc4C[C@@H]3C(=O)N3[C@H](C(=O)N[C@@H](CCCNC(=N)N)C(=O)O)C[C@@H]4CCCC[C@@H]43)c3ccccc32)CC1` (H-[dR]R[X3]S[dTic][Oic]R-OH), the Ki was determined as 58 nM.

A further assay addresses T1, human bradykinin B2 receptor. The assay is described as follows: Radioligand binding, H2O.2 cell membranes, 3H-bradykinin. The following applies: Table 1, read-out: Radioligand Binding Human 3HBK. The protocol:
as §1, §2, §3, §4, §5, §6
Turning to `N=C(N)NCCC[C@@H](N)C(=O)N[C@@H](CCCNC(=N)N)C(=O)NCc1ccccc1/C=C/CC(=O)N[C@@H](CO)C(=O)N1Cc2ccccc2C[C@@H]1C(=O)N1[C@H](C(=O)N[C@@H](CCCNC(=N)N)C(=O)O)C[C@@H]2CCCC[C@@H]21` (H-[dR]R[X1]S[dTic][Oic]R-OH), the Ki came to 51 nM.

Staying with this assay, now noted: Table 2, read-out: Radioligand Binding, Ki Human 3HBK.
`Cc1cc(C)nc(NCCC[C@@H](NC(=O)Cn2c3c(c4ccccc42)CCN(C(=O)CN2CN(c4ccccc4)C4(CCN(C(=O)[C@H](N)CCCNC(=N)N)CC4)C2=O)C3)C(N)=O)n1` [Compound 16]: the Ki is 212 nM.

Regarding `CCCN1CN(CC(=O)N2CCc3c(c4ccccc4n3CC(=O)N[C@@H](CCCNC(=N)N)C(=O)O)C2)C(=O)C12CCN(C(=O)[C@H](CCCNC(=N)N)NC(=O)[C@H](N)CCCNC(=N)N)CC2` [Compound 11], the Ki worked out at 473 nM.

Consider `N=C(N)NCCC[C@@H](N)C(=O)N[C@@H](CCCNC(=N)N)C(=O)N1CCC2(CC1)C(=O)N(CC(=O)N1CCc3c(c4ccccc4n3CC(=O)N[C@@H](CCCNC(=N)N)C(=O)O)C1)CN2CC1CCCCC1` [Compound 12], for which the Ki turned out to be 168 nM.

For the compound `COc1ccc(N2CN(CC(=O)N3CCc4c(c5ccccc5n4CC(=O)N[C@@H](CCCNC(=N)N)C(=O)O)C3)C(=O)C23CCN(C(=O)[C@H](CCCNC(=N)N)NC(=O)[C@H](N)CCCNC(=N)N)CC3)cc1` [Compound 9], the Ki came out at 129 nM.

For `Cc1cc(C)nc(NCCC[C@@H](NC(=O)Cn2c3c(c4ccccc42)CCN(C(=O)CN2CN(c4ccccc4)C4(CCN(C(=O)[C@H](CCCNC(=N)N)NC(=O)[C@H](N)CCCNC(=N)N)CC4)C2=O)C3)C(N)=O)n1` [Compound 14], the Ki came to 78.4 nM.

Take `N=C(N)NCCC[C@@H](N)C(=O)N[C@@H](CCCNC(=N)N)C(=O)N1CCC2(CC1)C(=O)N(CC(=O)N1CCc3c(n(CCC(=O)N[C@@H](CCCNC(=N)N)C(=O)O)c4ccccc34)C1)CN2c1ccccc1` [Compound 8]: the Ki is 223 nM.

For the compound `N=C(N)NCCC[C@@H](N)C(=O)N[C@@H](CCCNC(=N)N)C(=O)N1CCC2(CC1)C(=O)N(CC(=O)N1CCc3c(c4ccccc4n3CC(=O)N[C@@H](CCCNC(=N)N)C(=O)O)C1)CN2C1CCCCC1` [Compound 10], the Ki is 229 nM.

In the case of `Cc1cc(C)nc(NCCC[C@@H](NC(=O)Cn2c3c(c4ccccc42)CN(C(=O)CN2CN(CC4CCCCC4)C4(CCN(C(=O)[C@H](CCCNC(=N)N)NC(=O)[C@H](N)CCCNC(=N)N)CC4)C2=O)CC3)C(N)=O)n1` [Compound 20], the Ki was found to be 52 nM.

Take `N=C(N)NCCC[C@@H](N)C(=O)N[C@@H](CCCNC(=N)N)C(=O)N1CCC2(CC1)C(=O)N(CC(=O)N1CCc3c(c4ccccc4n3CC(=O)N[C@@H](CCCNC(=N)N)C(=O)O)C1)CN2c1ccccc1` [Compound 7]: the Ki stood at 325 nM.

On to `N=C(N)NCCC[C@@H](N)C(=O)N[C@@H](CCCNC(=N)N)C(=O)N1CCc2c(n(CCC(=O)N3CCC4(CC3)C(=O)N(CC(=O)N[C@@H](CCCNC(=N)N)C(=O)O)CN4c3ccccc3)c3ccccc23)C1` [Compound 3], for which the Ki worked out at 570 nM.

With `N=C(N)NCCC[C@@H](N)C(=O)N[C@@H](CCCNC(=N)N)C(=O)N1CCC2(CC1)C(=O)N(CC(=O)N1CCc3c(n(CC(=O)N[C@@H](CCCNC(=N)N)C(=O)O)c4ccccc34)C1)CN2C1CCCCC1` [Compound 4], the Ki was 1400 nM.

Turning to `Cc1cc(C)nc(NCCC[C@@H](NC(=O)Cn2c3c(c4ccccc42)CCN(C(=O)CN2CN(c4ccccc4)C4(CCN(C(=O)[C@@H](N)CCCNC(=N)N)CC4)C2=O)C3)C(N)=O)n1` [Compound 15], the Ki stood at 285 nM.
